# Experimental data as given in patent US4183931A, “2-Ketoalkyl-4(3H)-quinazolinones” (Research Corporation, priority 1977, dated 1980).
# Where two headings read alike, the source gives them in different places.
# Columns and labels:
# [1] = NPP maximal electroshock seizure (MES) protection; format: in vivo, white male mice of the Carworth Farm Strain CF-1; conditions: Mus musculus, ip; for responders at 100 mg/kg: 0.5 h, at 100 mg/kg i.p., four mice, 30 min after dosing
# Procedure: (§1) The procedures for the determination of a neuropharmacological profile involved white male mice of the Carworth Farm Strain CF-1 weighing 18 to 22 grams. […] Intraperitoneal injections were administered in logarithmic progression and sequentially. The dose levels employed routinely were 10, 30, 100 and 300 mg/kg, using four male mice at each dose level. Since this test was conducted in a sequential manner, the first does administered was at 300 mg/kg. […] Approximately thirty-eight signs and symptoms of pharmacological activity can be identified.
# (§2) Since this is a general CNS screening procedure, only peak effects were recorded. Certain measures of behavior and neurological deficit were scored in terms of intensity of effect, while most others were determined on an all or none basis. Thus, in scoring measures which were normally present, e.g., spontaneous activity and skin color, an increase in score from 4 to 8 was used to denote stimulation or enhancement of skin color, whereas a decrease in score from 4 to 0 indicated depression or cyanosis. For scoring measures normally absent, e.g., depression, righting reflex and ataxia, activity was reflected as an increase in score from 0 to 8. The 0 to 8 scale was rounded off so that the actual ratings are only 0, 2, 4, 6 and 8. The compounds were also evaluated for anticonvulsant activity by using the maximal electroshock seizure (MES) test. In the MES study, four mice were dosed intraperitoneally at 100 mg/kg and challenged thirty minutes later with 50 mA, 0.2 second duration of electroshock. A protection ratio (number of mice protected from tonic extension .div. number of mice tested) was then established.
# (§3) Scores for behavioral symptoms, including depression, righting reflex and ataxia, are the actual numbers reported. Protection against MES is reported as a percentage. Since four animals were involved in this test, the findings are 0% for none protected, 25% for one out of four, etc. […] In order to maintain reasonable uniformity in the reporting of results, each entry corresponds to a dosage level of 100 mg/kg. Any variations from that dosage are indicated.
# [2] = Neuropharmacological Profile (NPP): general CNS observational screen (depression, righting reflex, ataxia); conditions: i.p., mice, score 0-8; for Depression: at 300 mg/kg
# Procedure: Representative compounds according to the present invention were tested for central nervous system activity by Pharmakon Laboratories of Scranton, Pennsylvania. The battery of general observational procedures used is referred to herein as a Neuropharmacological Profile (NPP). Additionally, representative compounds were tested in the Anticonvulsant Screening Project of the National Institutes of Neurological and Communicative Disorders and Stroke (NINCDS) at the University of Utah under the direction of Dr. Ewart A. Swinyard.
# as §1
# (§4) The animals were observed continously for one hour and, if no signs of pharmacological or toxicological activity were present at the end of the first hour, they were intermittently checked for activity every fifteen minutes thereafter for two consecutive hours. […] The observation period began immediately following the injection and the animals were then continuously observed for three hours and intermittently checked thereafter for forty-eight hours. The animals were observed and signs and symptoms of pharmacological activity were recorded continuously until no further symptoms developed and until the symptoms that appeared were no longer present. […] In such instances, the animals were observed beyond this period until they returned to normal. Routinely, the number of animals alive at the end of the forty-eight hour observation period was recorded and the LD50 estimated.
# The animals are free to move about for evaluation of spatial orientation, alertness and spontaneous motor activity.
# as §2
# At the termination of the test, the results were recorded and tabulated.
# as §3
# [3] = NPP lethality (estimated LD50); conditions: mouse, in vivo, ip
# Procedure: as §1, §4, §3
# [4] = NINCDS Subcutaneous Pentylenetetrazol (Metrazol) Seizure Threshold Test (scMet); format: in vivo, mice; conditions: Mus musculus, sc, read-out: scMet: dosage level that elicited protection
# Procedure: 1. Neurological Activity Tests. […] Compounds were evaluated for anticonvulsant activity in two seizure models, the maximal electroshock seizure (MES) test and the subcutaneous pentylenetetrazol (Metrazol) seizure threshold (scMet) test.
# Subcutaneous Pentylenetetrazol (Metrazol) Seizure Threshold Test (scMet) produces threshold (clonic) seizures. Pentylenetetrazol is administered subcutaneously as a threshold 0.5% solution (in 0.9% sodium chloride) in a loose fold of skin on the back of the neck in a dose of 85 mg/kg. […] Metrazol is given 10 minutes before the beginning of the test to allow for the delay in onset of Metrazol action. The animal is observed for 30 minutes. Failure to observe even a threshold seizure (a single episode of clonic spasms at least 5 seconds in duration) is defined as protection and indicates anticonvulsant activity in the test compound. These two methods of seizure provocation reliably elicit well-characterizied seizure phenomena.
# The ability of a compound to prevent maximal electroshock seizures is believed to correlate with its ability to prevent the spread of seizure discharge through neural tissue. Activity against maximal electroshock seizures is thought to indicate potential efficacy in the treatment of major motor (grand mal) seizures. […] Selective action in the test is believed to indicate potential efficacy against absence (petit mal) seizures.
# As described earlier, the MES, scMet and Rotorod tests were performed one-half hour and four hours after administration of each compound.
# In the Secondary Evaluation, median effective doses (ED50) are determined in the MES, scMet and Rotorod assays using the procedures defined in Pharmacology, 95, 99-113 (1949).
# Separate groups of animals are used for each time period. The times of peak toxic and anticonvulsant effect are taken from the resulting graph of percent of animals responding vs. time, and the determinations of median effective doses are performed at those times.
# [5] = at 30 mg/kg (value in parentheses)
# [6] = after 4 hr (value in parentheses)
SMILES,responders at 100 mg/kg [1] [%],CNS Depression ([2]; at 100 mg/kg),LD50 at 48 h [3] [mg/kg],further results
"Cc1ccccc1-n1c(CC(=O)C=Cc2ccccc2)nc2ccccc2c1=O [IIIf, 2-(2-Oxo-4-phenylbut-3-enyl)-3-o-tolyl-4(3H)-quinazolinone]",25,4,> 562,"CNS Depression [2, 5]: 2"
"Cc1ccccc1-n1c(CC(=O)c2ccc(Cl)cc2)nc2ccccc2c1=O [IIIh, 2-[2-Oxo-2-(4-chlorophenyl)ethyl]-3-o-tolyl-4(3H)-quinazolinone]",0,0,316,Depression [2]: 4
"Cn1c(CC(=O)c2ccccc2)nc2ccccc2c1=O [IVr, 2-(2-Oxo-2-phenylethyl)-3-methyl-4(3H)-quinazolinone]",–,–,–,"minimal effective dose [4, 6]: 300 mg/kg"
"COc1ccc(C(=O)Cc2nc3ccccc3c(=O)n2-c2ccccc2C)cc1 [IIIi, 2-[2-Oxo-2-(4-methoxyphenyl)ethyl]-3-o-tolyl-4(3H)-quinazolinone]",0,2,> 562,Depression [2]: 4
"Cc1nc2ccccc2c(=O)n1-c1ccccc1 [phenyl H, 2-methyl-3-phenyl-4(3H)-quinazolinone, reference compound]",–,8,562,"responders at 30 mg/kg ([1]; conducted at 30 mg/kg i.p.): 0%; CNS Depression [2, 5]: 4; Ataxia ([2]; at 100 mg/kg): 8; Righting reflex ([2]; at 100 mg/kg): 8"
"O=C(Cc1nc2ccccc2c(=O)n1-c1ccccc1Cl)c1ccccn1 [IVb, 2-[2-Oxo-2-(2-pyridyl)ethyl]-3-o-chlorophenyl-4(3H)-quinazolinone]",0,0,562,Depression [2]: 2
"O=C(Cc1nc2ccccc2c(=O)n1-c1ccccc1)C(F)(F)F [IVe, 2-(3,3,3-Trifluoroacetonyl)-3-phenyl-4(3H)-quinazolinone]",0,2,562,–
"Cc1ccc(-n2c(CC(=O)C(F)(F)F)nc3ccccc3c2=O)cc1 [IVi, 2-(3,3,3-Trifluoroacetonyl)-3-p-tolyl-4(3H)-quinazolinone]",100,4,562,Ataxia ([2]; at 100 mg/kg): 2
"Cc1ccccc1-n1c(CC(=O)C(F)(F)F)nc2ccccc2c1=O [IIIa, 2-(3,3,3-Trifluoroacetonyl)-3-o-tolyl-4(3H)-quinazoline]",50,–,> 562,"CNS Depression [2, 5]: 4; Ataxia ([2]; at 100 mg/kg): 2"
"O=C(Cc1nc2ccccc2c(=O)n1-c1ccccc1)c1ccncc1 [IVh, 2-[2-Oxo-2-(4-pyridyl)ethyl]-3-phenyl-4(3H)-quinazolinone]",–,–,–,minimal effective dose ([4]; after 0.5 hr): 100 mg/kg
"Cc1ccc(-n2c(CC(=O)c3ccncc3)nc3ccccc3c2=O)cc1 [IVl, 2-[2-Oxo-2-(4 pyridyl)ethyl]-3-p-tolyl-4(3H)-quinazolinone]",–,–,–,"minimal effective dose [4, 6]: 300 mg/kg"
"Cn1c(CC(=O)c2cccnc2)nc2ccccc2c1=O [IVs, 2-[2-Oxo-2-(3-pyridyl)ethyl]-3-methyl-4(3H)-quinazolindone]",0,4,422,–
"Cc1ccc(-n2c(CC(=O)c3cccnc3)nc3ccccc3c2=O)cc1 [IVk, 2-[2-Oxo-2-(3-pyridyl)ethyl]-3-p-tolyl-4(3H)-quinazolinone]",0,4,562,–
"COc1cc(C(=O)Cc2nc3ccccc3c(=O)n2-c2ccccc2C)cc(OC)c1OC [IIIj, 2-[2-Oxo-2-(3,4,5-trimethoxyphenyl)ethyl]-3-o-tolyl-4(3H)-quinazolinone]",0,2,> 562,Depression [2]: 4
"Cc1ccccc1-n1c(CCc2ccccc2)nc2ccccc2c1=O [CH2 C6 H5, reference compound]",–,–,–,"minimal effective dose ([4]; after 0.5 hr): 300 mg/kg; minimal effective dose [4, 6]: 300 mg/kg"
